Experimental findings from the supplement of paper PMC11061612 are described below.

What all share (assay): combination Emax (second highest fraction inhibited in the dose matrix, 72 h); higher = more inhibition; extreme values may be limits of the assay
The test system of assay [1] is OVISE (Ovarian Carcinoma). In a few lines:
(§1)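 Cell lines grown in DMEM/F12 or RPMI with 10% FBS were plated in 1536-well plates and held 24 hours at 37°C, 5% CO2 before 72 hours of exposure to two-drug dose matrices, with DMSO typically at 0.2%. CellTiter-Glo 2.0 luminescence gave viability, which was converted to inhibition. Vehicle wells were set to 0 and blank wells to 1. Combination Emax is the second-highest inhibition in the matrix, and Bliss excess is the observed combination effect minus the expected EA + EB − EA·EB, where EA and EB are the single-agent effects.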

The next assay deals with GI-1 (Glioblastoma). In a few lines:
as §1

Assay [2] concerns EMC-BAC-2 (Non-Small Cell Lung Carcinoma). In a few lines: as §1
The subject of assay [3] is KP-2 (Pancreatic Carcinoma). In a few lines: as §1
The test system of the next assay is EW-18 (Ewing's Sarcoma). In a few lines:
as §1

Assay [4] concerns MFE-319 (Endometrial Carcinoma). In outline:
as §1

Assay [5] deals with NCI-H2347 (Lung Adenocarcinoma). In a few lines:
as §1

Assay [6] concerns NCI-H2405 (Lung Adenocarcinoma). In a few lines:
as §1

The subject of assay [7] is H-EMC-SS (Chondrosarcoma). In a few lines:
as §1

Assay [8] concerns NCI-H1573 (Lung Adenocarcinoma). In outline: as §1
Another assay has as its system EW-3 (Ewing's Sarcoma). In outline: as §1
Assay [9] deals with JHH-7 (Hepatocellular Carcinoma). In outline:
as §1

The test system of assay [10] is SCC-3 (B-Cell Non-Hodgkin's Lymphoma). In outline:
as §1

For a further assay, the system named is IMR-5 (Neuroblastoma). In outline: as §1
In assay [11] the test system is DG-75 (Burkitt's Lymphoma). In outline: as §1
The next assay relates to EW-13 (Ewing's Sarcoma). In a few lines:
as §1

The test system of assay [12] is SCC-9 (Oral Cavity Carcinoma). In a few lines: as §1
In assay [13] the test system is KYSE-50 (Esophageal Squamous Cell Carcinoma). In outline: as §1
In assay [14] the test system is BV-173 (Chronic Myelogenous Leukemia). In outline: as §1
In assay [15] the test system is SNU-C1 (Colorectal Carcinoma). In a few lines: as §1

Structures are written as SMILES.

In the case of `CCN(CCO)CCCOc1ccc2c(Nc3cc(CC(=O)Nc4cccc(F)c4)[nH]n3)ncnc2c1` [AZD2811] + C=CCn1c(=O)c2cnc(Nc3ccc(N4CCN(C)CC4)cc3)nc2n1-c1cccc(C(C)(C)O)n1 [AZD1775] (first compound max 1 µM, partner max 1 µM), the “combination Emax” value stood at 0.571 in [1]; 0.947 in the assay on GI-1 (Glioblastoma); 0.223 in assay [2]; 0.206 in [3]; 0.635 in the assay on EW-18 (Ewing's Sarcoma); 0.578 in assay [4]. For the same compound, the “combination Emax” value in [5] is 0.32; in [6], 0.128; in assay [7], 0.257; in assay [8] it was 0.178; in the assay on EW-3 (Ewing's Sarcoma), 0.402; in assay [9], 0.162. For the same compound, the “combination Emax” value in assay [10] was determined as 0.923; with IMR-5 (Neuroblastoma) it was 0.998; in assay [11] it was 0.776; in the assay on EW-13 (Ewing's Sarcoma) it was 0.355; in assay [12] it was 0.172; in [13], 0.301. Also, the figures for the “combination Emax” value in assay [14] and in assay [15] were 0.987 and 0.151, respectively.

Turning to `CC1(C)CCC(CN2CCN(c3ccc(C(=O)NS(=O)(=O)c4ccc(NCC5CCOCC5)c([N+](=O)[O-])c4)c(Oc4cnc5[nH]ccc5c4)c3)CC2)=C(c2ccc(Cl)cc2)C1` [Venetoclax] + C1CN(CCC1(C(=O)N[C@@H](CCO)C2=CC=C(C=C2)Cl)N)C3=NC=NC4=C3C=CN4 [Capivasertib] (first compound max 1 µM, 7x7, partner max 3 µM), the “combination Emax” value was 0.456 in assay [1]; 0.412 in the assay with GI-1 (Glioblastoma); 0.35 in [2]; 0.0692 in assay [3]; 0.662 with EW-18 (Ewing's Sarcoma); 0.321 in assay [4]. Also, the “combination Emax” value was determined as 0.158 in assay [5]; 0.187 in assay [6]; 0.413 in assay [7]; 0.194 in assay [8]; 0.683 in the assay with EW-3 (Ewing's Sarcoma); 0.149 in [9]. Also, the “combination Emax” value in [10] amounted to 0.131; in the assay on IMR-5 (Neuroblastoma), 0.19; in assay [11] it was 0.179; in the assay with EW-13 (Ewing's Sarcoma) it was 0.213; in assay [12], 0.146; in [13], 0.17. The “combination Emax” value in assay [14] is 0.897; in [15], 0.428.

With `CC1(C)CCC(CN2CCN(c3ccc(C(=O)NS(=O)(=O)c4ccc(NCC5CCOCC5)c([N+](=O)[O-])c4)c(Oc4cnc5[nH]ccc5c4)c3)CC2)=C(c2ccc(Cl)cc2)C1` [Venetoclax] + COc1cc(Nc2ncc3c(n2)-c2ccc(Cl)cc2C(c2c(F)cccc2OC)=NC3)ccc1C(=O)O [Alisertib] (first compound max 1 µM, 7x7, partner max 10 µM), the “combination Emax” value in [1] is 0.578; in the assay with GI-1 (Glioblastoma), 0.506; in assay [2], 0.507; in assay [3] it was 0.267; in the assay on EW-18 (Ewing's Sarcoma), 0.736; in assay [4] it was 0.395. Also, the “combination Emax” value in assay [5] was found to be 0.18; in [6], 0.228; in assay [7], 0.658; in assay [8] it was 0.378; with EW-3 (Ewing's Sarcoma), 0.847; in assay [9], 0.287. In addition, the “combination Emax” value in [10] was determined as 0.893; with IMR-5 (Neuroblastoma), 1; in assay [11] it was 0.518; with EW-13 (Ewing's Sarcoma), 0.294; in assay [12], 0.274; in assay [13], 0.537. Also, the “combination Emax” value stood at 0.971 in assay [14] and 0.251 in [15].

For the compound `COc1nnc2ccc(N3CCC(c4ccc(OCCN5CCN(C)C(=O)[C@H]5C)cc4)CC3)nn12` [AZD5153] + CCN(CCO)CCCOc1ccc2c(Nc3cc(CC(=O)Nc4cccc(F)c4)[nH]n3)ncnc2c1 [AZD2811] (first compound max 1 µM, 7x7, partner max 1 µM), the “combination Emax” value is 0.589 in [1]; 0.873 with GI-1 (Glioblastoma); 0.738 in [2]; 0.401 in assay [3]; 0.768 in the assay on EW-18 (Ewing's Sarcoma); 0.535 in assay [4]. Further, the “combination Emax” value in [5] is 0.385; in assay [6] it was 0.367; in assay [7], 0.248; in assay [8] it was 0.412; in the assay on EW-3 (Ewing's Sarcoma) it was 0.626; in assay [9], 0.361. The “combination Emax” value in assay [10] was found to be 0.9; with IMR-5 (Neuroblastoma) it was 1; in assay [11], 0.892; with EW-13 (Ewing's Sarcoma), 0.362; in assay [12], 0.428; in assay [13], 0.651. For the same compound, the “combination Emax” value in assay [14] was determined as 0.936; in assay [15], 0.531.

As to `COc1cc2ncnc(Nc3ccc(F)c(Cl)c3)c2cc1OCCCN1CCOCC1` [Gefitinib] + CC(C)n1c(=O)n(C)c2cnc3cc(F)c(-c4ccc(OCCCN5CCCCC5)nc4)cc3c21 [AZD1390] (first compound max 10 µM, 7x7, partner max 0.3 µM), the “combination Emax” value was 0.197 in assay [1]; 0.18 in the assay with GI-1 (Glioblastoma); 0.32 in assay [2]; 0.0653 in assay [3]; 0.229 in the assay with EW-18 (Ewing's Sarcoma); 0.0734 in [4]. The “combination Emax” value is 0.0611 in assay [5]; 0.0242 in [6]; 0.201 in [7]; 0.162 in assay [8]; 0.254 in the assay on EW-3 (Ewing's Sarcoma); 0.115 in assay [9]. Besides, the “combination Emax” value is 0.348 in assay [10]; 0.123 with IMR-5 (Neuroblastoma); 0.373 in [11]; 0.117 in the assay on EW-13 (Ewing's Sarcoma); 0.626 in assay [12]; 0.334 in assay [13]. Besides, the figures for the “combination Emax” value in assay [14] and in assay [15] were 0.391 and 0.0654, respectively.

In the case of `COc1cccc(OCCCN)c1-c1cc(Nc2cnc(C#N)cn2)n[nH]1` [Prexasertib] + CCc1c2c(nc3ccc(O)cc13)-c1cc3c(c(=O)n1C2)COC(=O)[C@]3(O)CC [SN-38] (first compound max 1 µM, 7x7, partner max 0.3 µM), the “combination Emax” value in [1] is 0.689; with GI-1 (Glioblastoma) it was 1; in assay [2], 0.657; in assay [3], 0.837; with EW-18 (Ewing's Sarcoma), 0.77; in assay [4], 0.897. Further, the “combination Emax” value in assay [5] turned out to be 0.879; in assay [6], 0.626; in assay [7] it was 0.574; in assay [8], 0.777; with EW-3 (Ewing's Sarcoma) it was 0.838; in assay [9], 0.736. The “combination Emax” value in assay [10] was 1; in the assay on IMR-5 (Neuroblastoma) it was 1; in [11], 0.957; in the assay with EW-13 (Ewing's Sarcoma), 0.84; in assay [12], 0.561; in [13], 0.904. The entries for the “combination Emax” value in assay [14] and in assay [15] were 0.967 and 0.745, respectively.
